Data set [1] relates to RGCs. As to the kind of experiment: Application of ATP or P2X7 agonist to isolated rat retinas, RGC damage. The data set is classed as cell-based. The source says:
(§1) Adult animals were decapitated and the retinas quickly dissected, flattened onto nitrocellulose filters, and maintained in oxygenated ACSF. Individual RGCs were labeled by shooting 1.3 μm tungsten particles coated with Oregon Green 488 conjugated dextran (Molecular Probes, Inc., Eugene, Oreg.) into the retina using a gene gun (Bio-Rad Laboratories, Hercules, Calif.; Kettunen, et al. (2002) J. Neurosci. Methods 119:37-43). Individual RGCs were imaged by placing the retinas in oxygenated ACSF within a custom-made 4 ml observation chamber on the stage of a Zeiss Axioplan fluorescence microscope equipped with a black and white CCD camera (Chroma DTA, Pisa, Italy). Observations were performed at room temperature (25-28° C.). A 40× Olympus immersion objective (N.A. 0.80) was used and excitation light was kept below 10% of its maximum intensity. Less than 5 RGCs per retina were analyzed to minimize light exposure. Loss of membrane integrity was assessed by adding 1.5 μM PI to the ACSF for 1 minute. Exposure of phospatidylserine on the outer membrane leaflet was evidenced by a 20 minute incubation in ACSF containing 3 μg/ml Cy3-Annexin V. In some experiments, RGCs were preincubated with oxidized-ATP (oATP) for 2 hours or with Brilliant BlueG (BBG) for 30 minutes prior to imaging.
Incubation of isolated rat retinas in 1 mM ATP induced the same effects obtained with repeated pressure increments, causing cell blebbing and uptake of PI in all the RGCs tested (35/35 tested) within 1 hour, except in α-type RGCs (0/15). The same effects were obtained applying the potent P2X7 receptor agonist 2′,3′-benzoyl-4-benzoyl-ATP (BzATP; 0.1 mM; 10/10 non-α-RGCs).

Data set [2] deals with RGCs. The data set can be described thus: Prevention of ATP-induced RGC damage in isolated rat retinas by P2X blockers. Format: cell-based. Conditions: 2 hour preincubation in ACSF containing 300 μM oATP or 0.5 μM BBG.
Excerpt: as §1, with “In some experiments, RGCs were preincubated with oxidized-ATP (oATP) for 2 hours or with Brilliant BlueG (BBG) for 30 minutes prior to imaging.” left out
Incubation of isolated rat retinas in 1 mM ATP induced the same effects obtained with repeated pressure increments, causing cell blebbing and uptake of PI in all the RGCs tested (35/35 tested) within 1 hour, except in α-type RGCs (0/15). […]

The subject of data set [3] is RGCs. The data set can be described thus: Pressure-induced RGC damage in isolated rat retinas (pressure controlled incubation, imaging of living RGCs). Format: cell-based. Particulars: for signs of pressure induced RGC damage: 7×90 (7 one-minute pulses at 90 mm Hg, then 1 hour at 12 mm Hg), 30 U/ml apyrase, 300 μM oATP or 0.5 μM BBG. How it is done: Pressure controlled incubation: A free-standing bioreactor chamber was used for incubation of living retinas (e.g., rat retinas) in artificial cerebrospinal fluid (ACFS; Stacy et al. (2003) J. Comp. Neurol. 456:154-166) under controlled temperature (33±0.5° C.; pH 7.4±0.1), and hydrostatic pressure conditions (10-90 mm Hg, resolution 2 mm Hg; Previti, et al. (2002) IEEE-EMBS Special Topic conference on Molecular, Cellular and Tissue Engineering, 1:157-158). Rat retinas were allowed to stabilize at 12 mm Hg for 5 minutes, and 1 minute pressure increments were applied, reaching a peak value in less than 20 seconds. Consecutive pressure transients were separated by 1 minute at 12 mm Hg. Hydrostatic pressure and pH were regulated by electronically controlled air/CO2 admission in the incubator chamber.
Imaging living RGCs: Experiments were performed on Long Evans rats according to the ARVO and national regulation on animal experimentation. All chemicals were obtained from Sigma (St. Louis, Mo.) unless otherwise specified.
as §1
RGC were incubated with the following agents: 30 U/ml apyrase (an enzyme that degrades extracellular ATP; North, supra); 300 μM oATP (an irreversible blocker of P2X receptors; North, supra); or 0.5 μM BBG (a selective and reversible inhibitor of rat P2X7 receptors; North, supra).

Data set [4] deals with RGCs. The data set can be described thus: Pressure transients in vivo, PI staining of cells in the ganglion cell layer. On the set-up: species or system rat. Particulars: apyrase 30 U/ml intraocularly 5 minutes before pressure; 2 minutes at 50 mm Hg; retinas isolated after one hour. How it is done:
Pressure transients in vivo: Adult Long Evans rats were deeply anaesthetized by intraperitoneal injection with Avertine (10 ml/kg body weight, 3.3% tri-bromo-ethanol, 2% tertiary amyl-alcohol in saline) and their right eyes were incannulated with a 30 Gauge needle connected to a pressure apparatus, which was a column of ACSF held at appropriate height. Eye pressure was increased to 50 mm Hg for 2 minutes by switching on the connection between the needle and the column of ACSF. A piezo-resistive pressure sensor (RS Electronics) controlled pressure values and line tightness. […] After pressure application, the animals were returned to their cages for recovery. Retinas were isolated after one hour. Control eyes were incannulated, but no pressure transient was applied. To analyze the effects of blocking eATP in vivo, 2 μl apyrase (30 U/ml intraocular concentration) were injected intraocularly 5 minutes before pressure application. To evaluate cell damage, PI labeled cells were imaged across the retinal area in 10 evenly spaced (370×250 μm^2) sample fields per retina. This dye permits assessment of membrane integrity, as cells with reduced membrane integrity are permeable to and become stained with the dyes. Retina dissection, histological and immunocytochemical treatments for long term analysis were performed as described (Galli-Resta et al. (1997) J. Neurosci. 17:7831-7838). […]

Data set [5] relates to RGC light response. As to the kind of experiment: Extracellular electrophysiological recordings in the optic tract, RGC light response after IOP transient. The data set is classed as in vivo, rat. As to the method:
Extracellular electrophysiological recordings: Experimental procedures for extracellular electrophysiological recordings are as described (Caleo et al. (2003) J. Neurosci. 23(1):287-296.). Briefly, rats aged between P25 and P30 were anesthetized with urethane (20% solution in saline; 0.7 ml/100 g of body weight, i.p.; Sigma) and placed in a stereotaxic frame. Both eyes were fixed by means of adjustable metal rings surrounding the external portion of the eye bulb. Body temperature was continuously monitored and maintained at 37° C. by a thermostat-controlled electric blanket. […]
Experiments were conducted to determine (1) whether intraocular injection of apyrase had any deleterious effects on RGC firing activity and light response, and (2) whether intraocular injection of apyrase had any effect on RGC light response recovery following a transient IOP elevation in vivo. Multi-unit spike activity evoked by a light flash was recorded in the optic tract at five minute intervals before and after an IOP pulse at 90 mmHg for 1 minute. […] Quantifying response as the average firing rate in the interval 0-2 seconds after flash onset, the average maximal response decrement was 80±16%; N=15, and the average time needed to recover at least 85% of the initial response was 32±4 minutes after the IOP spike. […]

The mark [6] stands for this setting: two hours after ATP application.

Take `Nc1ncnc2c1ncn2[C@@H]1O[C@H](COP(=O)(O)OP(=O)(O)OP(=O)(O)O)[C@@H](O)[C@H]1O` [ATP, adenosine 5′-triphosphate]: the “cell blebbing and uptake of PI, affected/tested RGCs” value in data set [1] (1 mM ATP, within 1 hour, RGCs other than α-type) is 35/35. In addition, the “cell blebbing and uptake of PI, affected/tested α-type RGCs” value in data set [1] (1 mM ATP, within 1 hour, α-type RGCs) was 0/15. Moreover, in data set [1] (setting [6]), the “cell soma shrinkage or fragmentation, RGCs” value was 10/10 and the “phosphatidylserine exposure on the external membrane (Annexin V binding), RGCs” value is 7/7.
As for `CCOc1ccc(Nc2ccc(/C(=C3C=C/C(=[N+](/CC)Cc4cccc(S(=O)(=O)[O-])c4)C=C/3C)c3ccc(N(CC)Cc4cccc(S(=O)(=O)O)c4)cc3C)cc2)cc1` [BBG, Brilliant BlueG], in data set [2], the “ATP-induced RGC damage, damaged/tested non-α-RGCs” value is 0/15. Besides, the “signs of pressure induced RGC damage” value in data set [3] was “prevented all signs of pressure induced RGC damage”.
In the same order, the values of `Nc1ncnc2c1ncn2[C@@H](C=O)O[C@@H](C=O)COP(=O)(O)OP(=O)(O)OP(=O)(O)O` [oATP, oxidized-ATP] are 0/20 and “prevented all signs of pressure induced RGC damage”.
For `Nc1ncnc2c1ncn2[C@@H]1O[C@H](COP(=O)(O)OP(=O)(O)OP(=O)(O)O)[C@@H](OC(=O)c2ccc(C(=O)c3ccccc3)cc2)[C@H]1O` [BzATP, 2′,3′-benzoyl-4-benzoyl-ATP], the “cell blebbing and uptake of PI, affected/tested non-α-RGCs” value in data set [1] (0.1 mM BzATP) is reported as 10/10.
Consider apyrase, for which the “pressure-induced RGC damage in vivo (PI staining)” value in data set [4] was “totally prevented”. In addition, the “signs of pressure induced RGC damage” value in data set [3] was “prevented all signs of pressure induced RGC damage”. In data set [3] (in the presence of apyrase 30 U/ml), the “blebbing or permeability to PI when pressure applied” value is listed as “no blebbing or permeability to PI was observed”. Also, the “spike activity before pressure application” value in data set [5] (apyrase 30 U/ml intraocularly) was “not significantly altering”. The “average response recovery-time (at least 85% of initial response)” value in data set [5] (apyrase 30 U/ml intraocularly 1-3 hours before IOP pulse at 90 mmHg for 1 minute, N=8) is 11.2 ± 2.6 min.

The values above are taken from patent publication US20100074884A1, “INHIBITION OF NEURONAL DAMAGE” (DUSKA SCIENTIFIC CO., priority 2005, published 2010).
